Source: ChEMBL document CHEMBL5356964, “Design, synthesis and anti-rheumatoid arthritis activity of target TLR4 inhibitors” (Bioorg Med Chem, 2024)

What was measured:
[1] = Antiproliferative activity against rat Synovial cell assessed as inhibition of cell growth incubated for 48 hrs by CCK-8 assay; format: functional, cell-based
RAW264.7 [2] = assay: Antiproliferative activity against LPS-induced- mouse RAW264.7 cells assessed as inhibition of cell growth incubated for 24 hrs by CCK-8 assay; format: functional, cell-based; details: RAW264.7, 24 h
RAW264.7 [3] = assay: Antiarthritic activity against LPS-induced mouse RAW264.7 cells assessed as reduction in TNF-alpha level at 1 uM incubated for 24 hrs (Rvb 653.3 +/- 70.1 pg/L); format: functional
RAW264.7 [4] = assay: Antiarthritic activity against LPS-induced mouse RAW264.7 cells assessed as reduction in IL-6 level at 1 uM incubated for 24 hrs (Rvb 231.1 +/- 24.2 pg/L); format: functional
Toll-like receptor 4 = Toll-like receptor 4 (Homo sapiens, UniProt O00206); assay: Inhibition of TLR4 (unknown origin) using TMB as substrate incubated for 90 mins
RAW264.7 [5] = assay: Antiarthritic activity against LPS-induced mouse RAW264.7 cells assessed as reduction in IL-1beta level at 1 uM incubated for 24 hrs (Rvb 665.1 +/- 82.1 pg/L); format: functional

Chain of Toll-like receptor 4 (O00206 whole entry): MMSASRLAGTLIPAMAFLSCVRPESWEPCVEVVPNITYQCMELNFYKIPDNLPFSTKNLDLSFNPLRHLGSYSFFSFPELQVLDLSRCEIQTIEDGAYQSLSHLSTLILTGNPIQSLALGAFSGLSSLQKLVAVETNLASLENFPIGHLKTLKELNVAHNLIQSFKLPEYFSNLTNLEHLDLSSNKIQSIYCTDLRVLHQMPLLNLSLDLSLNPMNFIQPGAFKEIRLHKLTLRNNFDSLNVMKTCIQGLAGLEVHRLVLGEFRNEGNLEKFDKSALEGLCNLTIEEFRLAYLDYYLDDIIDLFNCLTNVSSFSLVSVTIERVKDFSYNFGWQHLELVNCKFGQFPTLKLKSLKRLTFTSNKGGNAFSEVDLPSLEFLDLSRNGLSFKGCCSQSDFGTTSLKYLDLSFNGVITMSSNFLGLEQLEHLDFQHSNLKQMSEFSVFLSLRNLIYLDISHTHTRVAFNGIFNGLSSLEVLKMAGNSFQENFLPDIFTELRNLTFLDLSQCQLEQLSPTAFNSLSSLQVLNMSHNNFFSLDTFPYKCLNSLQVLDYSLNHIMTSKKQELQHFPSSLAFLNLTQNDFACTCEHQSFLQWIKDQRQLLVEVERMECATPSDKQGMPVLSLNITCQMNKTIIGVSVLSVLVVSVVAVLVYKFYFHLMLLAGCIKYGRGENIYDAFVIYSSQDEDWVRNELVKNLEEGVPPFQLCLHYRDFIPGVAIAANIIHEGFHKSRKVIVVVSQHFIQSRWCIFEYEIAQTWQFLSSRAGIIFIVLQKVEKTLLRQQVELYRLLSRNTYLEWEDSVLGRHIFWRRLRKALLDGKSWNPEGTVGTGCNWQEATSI

For `CC(=O)CC(=O)C1CCCCC1=O` (stereo unspecified), the IC50 [1] was 4.45 µM and the IC50 (RAW264.7 [2]) was 3.11 µM.

With `CCC(C)(C)C1CCC(=O)C(C(=O)CC(C)=O)C1` (stereo unspecified) the IC50 [1] was 10.3 µM and the IC50 (RAW264.7 [2]) was 3.9 µM.

Work on `CCCC1CCC(C2CCC(=O)C(C(=O)CC(C)=O)C2)CC1` (stereo unspecified) yielded an Activity (RAW264.7 [3]) of 478.96 pg/L, an Activity (RAW264.7 [4]) of 180.7 pg/L and an IC50 [1] of 3.51 µM. The IC50 (RAW264.7 [2]) was 1.71 µM, the IC50 (Toll-like receptor 4) was 1.78 µM and the Activity (RAW264.7 [5]) was 545.9 pg/L.

With `CC(=O)CC(=O)C1CC(c2ccccc2)CCC1=O` (stereo unspecified) the IC50 [1] was 3.95 µM and the IC50 (RAW264.7 [2]) was 2.18 µM.

In the case of `CC(=O)CC(=O)C1CC(C2=CCCCC2)CCC1=O` (stereo unspecified), the IC50 [1] is reported as 5.43 µM and the IC50 (RAW264.7 [2]) is reported as 2.83 µM.

Work on `CC(=O)CC(=O)C1CC(c2ccc(O)cc2)CCC1=O` (stereo unspecified) yielded an IC50 [1] of 7.94 µM and an IC50 (RAW264.7 [2]) of 3.21 µM.
